Broadly, the Ki is the dissociation constant of the complex between target and ligand, obtained from inhibition or displacement. The low end stands for tighter binding, the high end for weaker binding. As usually defined, the IC50 is the concentration at which inhibition is half-maximal. Read a high IC50 as lower potency.

Our source for the Ki and IC50 values is ChEMBL document CHEMBL1138127, “Conversion of potent MMP inhibitors into selective TACE inhibitors” (Bioorg Med Chem Lett, 2006).

Structures are written as SMILES. Bounds are passed on as bounds.

One experiment concerns the target T1, Interstitial collagenase (Homo sapiens, UniProt P03956).
T1 sequence (P03956 whole entry): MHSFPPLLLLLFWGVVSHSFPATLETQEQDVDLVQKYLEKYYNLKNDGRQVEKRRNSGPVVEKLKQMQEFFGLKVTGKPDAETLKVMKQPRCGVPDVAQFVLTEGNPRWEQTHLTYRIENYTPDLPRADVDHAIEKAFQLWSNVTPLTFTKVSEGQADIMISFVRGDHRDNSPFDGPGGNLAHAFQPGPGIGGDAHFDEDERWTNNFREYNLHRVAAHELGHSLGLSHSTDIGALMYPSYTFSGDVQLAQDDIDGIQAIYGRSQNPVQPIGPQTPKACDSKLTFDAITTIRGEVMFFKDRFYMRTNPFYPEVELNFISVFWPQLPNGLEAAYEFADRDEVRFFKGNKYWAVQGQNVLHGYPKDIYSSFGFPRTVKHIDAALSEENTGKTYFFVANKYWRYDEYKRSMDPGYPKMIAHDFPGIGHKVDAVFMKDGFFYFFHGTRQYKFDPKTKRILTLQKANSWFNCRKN
The experiment can be described thus: Binding affinity to MMP1.

Experiment [1] deals with Disintegrin and metalloproteinase domain-containing protein 17 (Homo sapiens, UniProt P78536). The experiment in a line: Inhibitory activity against TACE.
Experiment [2] has as its target Matrix metalloproteinase-9 (Homo sapiens, UniProt P14780). The experiment in a line: Binding affinity to MMP9.
The target in experiment [3] is 72 kDa type IV collagenase (Homo sapiens, UniProt P08253). The experiment can be described thus: Binding affinity to MMP2.
The target of a further experiment is Collagenase 3 (Homo sapiens, UniProt P45452). The experiment in a line: Binding affinity to MMP13.

Sequence of Disintegrin and metalloproteinase domain-containing protein 17 (P78536 whole entry, the tested form may be a part): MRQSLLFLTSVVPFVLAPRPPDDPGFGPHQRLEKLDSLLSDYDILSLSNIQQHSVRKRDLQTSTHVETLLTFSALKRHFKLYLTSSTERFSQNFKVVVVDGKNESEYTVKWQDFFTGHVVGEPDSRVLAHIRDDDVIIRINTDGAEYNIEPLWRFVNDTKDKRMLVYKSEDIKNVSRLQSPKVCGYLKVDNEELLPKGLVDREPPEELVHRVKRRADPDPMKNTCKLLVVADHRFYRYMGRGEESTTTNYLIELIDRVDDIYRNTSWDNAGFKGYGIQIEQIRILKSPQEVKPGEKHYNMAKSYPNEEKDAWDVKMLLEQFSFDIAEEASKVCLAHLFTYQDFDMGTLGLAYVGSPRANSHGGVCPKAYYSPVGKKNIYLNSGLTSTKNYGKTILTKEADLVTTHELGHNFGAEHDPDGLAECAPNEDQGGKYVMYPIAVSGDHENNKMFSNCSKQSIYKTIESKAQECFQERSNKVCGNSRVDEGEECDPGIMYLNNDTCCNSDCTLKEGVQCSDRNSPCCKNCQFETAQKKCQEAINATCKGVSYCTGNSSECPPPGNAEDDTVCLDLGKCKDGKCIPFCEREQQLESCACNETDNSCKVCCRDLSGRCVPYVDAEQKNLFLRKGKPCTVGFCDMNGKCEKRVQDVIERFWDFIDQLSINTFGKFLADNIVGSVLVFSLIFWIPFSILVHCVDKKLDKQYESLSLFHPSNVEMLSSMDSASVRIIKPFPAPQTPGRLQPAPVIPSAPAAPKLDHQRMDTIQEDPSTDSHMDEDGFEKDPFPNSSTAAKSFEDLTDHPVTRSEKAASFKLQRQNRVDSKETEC
Sequence of Matrix metalloproteinase-9 (P14780 whole entry): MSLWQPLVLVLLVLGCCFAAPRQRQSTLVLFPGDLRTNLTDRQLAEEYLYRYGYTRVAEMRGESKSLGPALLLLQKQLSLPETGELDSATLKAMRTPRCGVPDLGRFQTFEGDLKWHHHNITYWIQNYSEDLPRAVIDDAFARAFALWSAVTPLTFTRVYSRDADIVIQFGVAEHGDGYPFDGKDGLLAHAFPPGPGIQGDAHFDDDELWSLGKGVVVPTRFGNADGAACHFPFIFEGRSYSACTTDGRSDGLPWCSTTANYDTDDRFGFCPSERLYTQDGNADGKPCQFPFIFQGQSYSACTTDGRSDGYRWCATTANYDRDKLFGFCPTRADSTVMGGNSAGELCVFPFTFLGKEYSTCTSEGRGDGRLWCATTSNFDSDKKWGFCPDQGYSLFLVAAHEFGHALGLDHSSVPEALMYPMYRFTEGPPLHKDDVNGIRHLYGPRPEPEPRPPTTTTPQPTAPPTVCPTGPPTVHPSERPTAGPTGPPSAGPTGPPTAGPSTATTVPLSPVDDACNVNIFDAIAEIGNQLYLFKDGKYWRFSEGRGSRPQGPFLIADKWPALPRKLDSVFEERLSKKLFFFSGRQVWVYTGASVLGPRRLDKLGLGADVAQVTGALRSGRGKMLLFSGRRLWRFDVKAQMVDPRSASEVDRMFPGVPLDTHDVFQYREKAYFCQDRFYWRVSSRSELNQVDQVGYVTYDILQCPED
Sequence of 72 kDa type IV collagenase (P08253 whole entry): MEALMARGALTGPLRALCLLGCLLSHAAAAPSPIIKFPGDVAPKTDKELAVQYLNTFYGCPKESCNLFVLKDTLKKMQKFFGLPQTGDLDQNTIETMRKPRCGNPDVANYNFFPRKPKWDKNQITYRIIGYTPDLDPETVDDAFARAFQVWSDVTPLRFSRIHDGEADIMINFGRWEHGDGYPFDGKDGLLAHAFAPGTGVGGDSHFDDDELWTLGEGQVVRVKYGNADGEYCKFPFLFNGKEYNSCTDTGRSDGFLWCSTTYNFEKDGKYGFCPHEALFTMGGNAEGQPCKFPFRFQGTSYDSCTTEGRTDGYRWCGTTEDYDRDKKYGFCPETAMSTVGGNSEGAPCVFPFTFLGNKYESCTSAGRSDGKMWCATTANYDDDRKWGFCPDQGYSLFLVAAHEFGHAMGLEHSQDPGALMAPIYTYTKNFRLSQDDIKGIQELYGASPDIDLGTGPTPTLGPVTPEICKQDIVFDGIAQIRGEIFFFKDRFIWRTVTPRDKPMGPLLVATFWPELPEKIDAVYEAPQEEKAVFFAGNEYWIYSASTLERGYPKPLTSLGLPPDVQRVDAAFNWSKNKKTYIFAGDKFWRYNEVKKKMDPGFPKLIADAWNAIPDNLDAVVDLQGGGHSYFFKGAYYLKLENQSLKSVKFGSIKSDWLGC

Take `COc1ccc(-c2ccc(CN3C(C(=O)NO)CCS3(=O)=O)cc2)cc1` (configuration not stated): the Ki on Interstitial collagenase was more than 4.95 µM. Besides, the IC50 in experiment [1] is more than 1000 nM.

On to `Cc1cc(COc2ccc(N3C(C(=O)NO)CCCS3(=O)=O)cc2)c2ccccc2n1` (configuration not stated), for which the Ki was more than 2130 nM in experiment [2], more than 4.95 µM at Interstitial collagenase, more than 3.33 µM in experiment [3] and more than 5.03 µM on Collagenase 3. In experiment [1], this compound yielded an IC50 of 3.7 nM.

Consider `Cc1cc(COc2ccc(CC3C(C(=O)NO)CCS3(=O)=O)cc2)c2ccccc2n1` (configuration not stated), for which the Ki is more than 2130 nM in experiment [2], more than 4.95 µM on Interstitial collagenase, more than 3.33 µM in experiment [3] and more than 5.03 µM on Collagenase 3. This compound gave an IC50 in experiment [1] of 150 nM.

Take `Cc1cc(COc2ccc(N3C(C(=O)NO)CCS3(=O)=O)cc2)c2ccccc2n1` (configuration not stated): the Ki in experiment [2] was more than 2130 nM; at Interstitial collagenase, more than 4.95 µM; in experiment [3], more than 3.33 µM; at Collagenase 3, more than 5.03 µM. Also, in experiment [1], the 50% inhibitory concentration (IC50) is 5.9 nM.

As to `Cc1cc(COc2ccc(CN3C(C(=O)NO)CCS3(=O)=O)cc2)c2ccccc2n1` (configuration not stated), the Ki in experiment [2] was more than 2130 nM; at Interstitial collagenase, more than 4.95 µM; in experiment [3], more than 3.33 µM; at Collagenase 3, more than 5.03 µM. Further, it took 900 nM to reach half-maximal inhibition in experiment [1] (IC50).

As for `Cc1cc(COc2ccc(CCN3C(C(=O)NO)CCS3(=O)=O)cc2)c2ccccc2n1` (configuration not stated), the Ki in experiment [2] was more than 2130 nM; on Interstitial collagenase, more than 4.95 µM; in experiment [3], more than 3.33 µM; on Collagenase 3 it was more than 5.03 µM. Moreover, half-maximal inhibition in experiment [1] (IC50) required 480 nM.

In the case of `Cc1cc(COc2ccc(N3C(C(=O)NO)CNS3(=O)=O)cc2)c2ccccc2n1` (configuration not stated), the Ki in experiment [2] is more than 2130 nM; on Interstitial collagenase, more than 4.95 µM; in experiment [3], more than 3.33 µM; at Collagenase 3 it was more than 5.03 µM. The same compound yielded an IC50 in experiment [1] of 8.3 nM.
